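Values below derive from 48-hour exposures of cells grown in 96-well plates, with endpoints linearly interpolated between the two concentrations bracketing the appropriate inhibition level. At the TGI there is no net growth.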
How the values were obtained:
Experiment in all cases: DTP human tumour cell line panel, 48 h
[1] = system: M14 melanoma
[2] = system: RXF 393 renal
[3] = system: HL-60(TB) leukemia
[4] = system: NCI-H522 lung
[5] = system: RPMI-8226 leukemia
[6] = system: SN12C renal
[7] = system: HT29 colon
[8] = system: HOP-62 NSCLC
[9] = system: DMS 273 small cell lung
[10] = system: TK-10 renal
[11] = system: OVCAR-3 ovarian
[12] = system: OVCAR-8 ovarian
[13] = system: 786-0 renal
[14] = system: SNB-19 CNS
[15] = system: OVCAR-4 ovarian
[16] = system: CAKI-1 renal
[17] = system: SNB-78 CNS
[18] = system: UACC-62 melanoma
[19] = system: LOX IMVI melanoma
[20] = system: OVCAR-5 ovarian
[21] = system: HCC-2998 colon
[22] = system: UACC-257 melanoma
[23] = system: SNB-75 CNS
[24] = system: NCI-H23 lung
[25] = system: DMS 114 small cell lung
[26] = system: MOLT-4 leukemia
[27] = system: IGROV1 ovarian
[28] = system: SW-620 colon
[29] = system: COLO 205 colon
[30] = system: SF-268 CNS
[31] = system: EKVX NSCLC
[32] = system: A549 NSCLC
[33] = system: U251 CNS
[34] = system: K-562 leukemia
[35] = system: HCT-15 colon
[36] = system: NCI-H460 lung
[37] = system: KM12 colon
[38] = system: ACHN renal
[39] = system: M19-MEL melanoma
[40] = system: UO-31 renal
[41] = system: HCT-116 colon
[42] = system: SK-MEL-5 melanoma
[43] = system: SK-OV-3 ovarian
[44] = system: SK-MEL-2 melanoma
[45] = system: LXFL 529 NSCLC
[46] = system: MALME-3M melanoma
[47] = system: KM20L2 colon
[48] = system: CCRF-CEM leukemia
[49] = system: A498 renal
[50] = system: SF-539 CNS
[51] = system: SK-MEL-28 melanoma
[52] = system: HOP-92 NSCLC
[53] = system: DLD-1 colon
[54] = system: SF-295 CNS
[55] = system: NCI-H226 lung
[56] = system: XF 498 CNS
[57] = system: RXF-631 renal
[58] = system: HOP-18 NSCLC
[59] = system: SR leukemia

COc1c2c(c(OC)c3c(=O)cc(C/C(=N/NC(=O)C[n+]4ccccc4)C(=O)Nc4cc(C)ccc4C)oc13)OCO2
TGI [1]: > 100 µM
TGI [2]: > 100 µM
TGI [3]: > 100 µM
TGI [4]: > 100 µM
TGI [5]: > 100 µM
TGI [6]: > 100 µM
TGI [7]: > 100 µM
TGI [8]: > 100 µM
TGI [9]: > 100 µM
TGI [10]: > 100 µM
TGI [11]: > 100 µM
TGI [12]: > 100 µM
TGI [13]: > 100 µM
TGI [14]: > 100 µM
TGI [15]: > 100 µM
TGI [16]: > 100 µM
TGI [17]: > 100 µM
TGI [18]: > 100 µM
TGI [19]: > 100 µM
TGI [20]: > 100 µM
TGI [21]: > 100 µM
TGI [22]: > 100 µM
TGI [23]: > 100 µM
TGI [24]: > 100 µM
TGI [25]: > 100 µM
TGI [26]: > 100 µM
TGI [27]: > 100 µM
TGI [28]: > 100 µM
TGI [29]: > 100 µM
TGI [30]: > 100 µM
TGI [31]: > 100 µM
TGI [32]: > 100 µM
TGI [33]: > 100 µM
TGI [34]: > 100 µM
TGI [35]: > 100 µM
TGI [36]: > 100 µM
TGI [37]: > 100 µM
TGI [38]: > 100 µM
TGI [39]: > 100 µM
TGI [40]: > 100 µM
TGI [41]: > 100 µM
TGI [42]: > 100 µM
TGI [43]: > 100 µM
TGI [44]: > 100 µM
TGI [45]: > 100 µM
TGI [46]: > 100 µM
TGI [47]: > 100 µM
TGI [48]: > 100 µM
TGI [49]: > 100 µM
TGI [50]: > 100 µM
TGI [51]: > 100 µM
TGI [52]: > 100 µM
TGI [53]: > 100 µM

O=C(c1ccccc1)c1ccc2cccc(O)c2n1
TGI [1]: 28 µM
TGI [2]: 69 µM
TGI [4]: 39.8 µM
TGI [5]: > 100 µM
TGI [6]: > 100 µM
TGI [8]: > 100 µM
TGI [9]: > 100 µM
TGI [10]: > 100 µM
TGI [11]: > 100 µM
TGI [12]: 71.9 µM
TGI [13]: 51.6 µM
TGI [14]: > 100 µM
TGI [15]: > 100 µM
TGI [16]: > 100 µM
TGI [17]: > 100 µM
TGI [18]: > 100 µM
TGI [19]: 28 µM
TGI [20]: > 100 µM
TGI [21]: > 100 µM
TGI [23]: > 100 µM
TGI [54]: 52.7 µM
TGI [24]: > 100 µM
TGI [25]: 39.1 µM
TGI [26]: 70.9 µM
TGI [27]: > 100 µM
TGI [28]: 32.4 µM
TGI [29]: > 100 µM
TGI [30]: > 100 µM
TGI [31]: 69 µM
TGI [32]: > 100 µM
TGI [33]: 68.3 µM
TGI [34]: > 100 µM
TGI [35]: > 100 µM
TGI [37]: > 100 µM
TGI [38]: > 100 µM
TGI [55]: > 100 µM
TGI [56]: > 100 µM
TGI [39]: > 100 µM
TGI [40]: > 100 µM
TGI [41]: 35.1 µM
TGI [42]: 75.8 µM
TGI [57]: > 100 µM
TGI [44]: > 100 µM
TGI [46]: > 100 µM
TGI [47]: > 100 µM
TGI [58]: > 100 µM
TGI [48]: 51.8 µM
TGI [59]: > 100 µM
TGI [50]: > 100 µM
TGI [51]: > 100 µM
TGI [53]: > 100 µM

N#CC12CCC(O)C(CC1)C2=O (stereo not given)
TGI [1]: > 100 µM
TGI [2]: > 100 µM
TGI [3]: > 100 µM
TGI [4]: > 100 µM
TGI [5]: 57.1 µM
TGI [6]: > 100 µM
TGI [7]: > 100 µM
TGI [8]: > 100 µM
TGI [9]: > 100 µM
TGI [10]: > 100 µM
TGI [11]: > 100 µM
TGI [12]: > 100 µM
TGI [13]: > 100 µM
TGI [14]: > 100 µM
TGI [15]: > 100 µM
TGI [16]: > 100 µM
TGI [17]: > 100 µM
TGI [18]: > 100 µM
TGI [19]: 39.3 µM
TGI [20]: > 100 µM
TGI [21]: > 100 µM
TGI [22]: > 100 µM
TGI [23]: > 100 µM
TGI [54]: > 100 µM
TGI [24]: > 100 µM
TGI [25]: 36 µM
TGI [26]: > 100 µM
TGI [27]: > 100 µM
TGI [29]: > 100 µM
TGI [30]: > 100 µM
TGI [31]: > 100 µM
TGI [32]: > 100 µM
TGI [33]: > 100 µM
TGI [34]: > 100 µM
TGI [35]: > 100 µM
TGI [36]: > 100 µM
TGI [37]: > 100 µM
TGI [38]: > 100 µM
TGI [55]: > 100 µM
TGI [56]: > 100 µM
TGI [39]: > 100 µM
TGI [40]: > 100 µM
TGI [41]: > 100 µM
TGI [42]: > 100 µM
TGI [57]: > 100 µM
TGI [43]: > 100 µM
TGI [44]: > 100 µM
TGI [46]: > 100 µM
TGI [47]: > 100 µM
TGI [58]: > 100 µM
TGI [48]: > 100 µM
TGI [59]: 77.3 µM
TGI [49]: > 100 µM
TGI [50]: > 100 µM
TGI [51]: > 100 µM
TGI [53]: > 100 µM

Source: PubChem BioAssay (NCI)
